{
  "source": "paper PMC3196665",
  "about": "(Chemical biology & drug design, 2011)",
  "key": {"EphA4 Fc": {"molecular_target": "EphA4 Fc (Mus musculus, UniProt Q03137)", "sequence (Q03137 20-547)": "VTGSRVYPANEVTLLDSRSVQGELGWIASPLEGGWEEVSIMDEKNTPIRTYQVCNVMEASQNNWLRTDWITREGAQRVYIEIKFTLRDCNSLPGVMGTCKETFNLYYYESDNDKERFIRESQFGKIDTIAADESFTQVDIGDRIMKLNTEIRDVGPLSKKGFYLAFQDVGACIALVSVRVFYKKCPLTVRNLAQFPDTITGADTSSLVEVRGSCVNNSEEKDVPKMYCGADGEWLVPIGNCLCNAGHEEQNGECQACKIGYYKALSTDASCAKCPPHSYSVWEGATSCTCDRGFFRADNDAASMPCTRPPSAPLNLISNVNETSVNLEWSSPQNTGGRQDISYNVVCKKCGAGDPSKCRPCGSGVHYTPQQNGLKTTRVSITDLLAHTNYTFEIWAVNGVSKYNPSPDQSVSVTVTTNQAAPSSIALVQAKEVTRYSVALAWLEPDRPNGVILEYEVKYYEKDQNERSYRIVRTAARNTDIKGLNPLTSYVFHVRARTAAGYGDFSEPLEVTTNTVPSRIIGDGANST", "assay": "ELISA: inhibition of ephrin-A5 AP binding to immobilized EphA4 Fc"}, "[1]": {"molecular_target": "EphA4 ligand-binding domain (Homo sapiens, UniProt P54764)", "sequence (P54764 28-208)": "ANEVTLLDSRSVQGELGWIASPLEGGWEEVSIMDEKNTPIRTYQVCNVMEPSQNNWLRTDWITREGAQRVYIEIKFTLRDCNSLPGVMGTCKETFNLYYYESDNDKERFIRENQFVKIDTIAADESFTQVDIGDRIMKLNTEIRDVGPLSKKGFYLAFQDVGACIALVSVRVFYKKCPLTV", "assay": "1H NMR of compound with increasing EphA4 ligand-binding domain", "settings": "10 mM phosphate buffer, pH 6.5; unmodified compound"}, "[2]": {"molecular_target": "EphA4 AP binding to ephrin-A and ephrin-B ligands (Homo sapiens, UniProt P54764)", "sequence (P54764 30-209 limits assumed)": "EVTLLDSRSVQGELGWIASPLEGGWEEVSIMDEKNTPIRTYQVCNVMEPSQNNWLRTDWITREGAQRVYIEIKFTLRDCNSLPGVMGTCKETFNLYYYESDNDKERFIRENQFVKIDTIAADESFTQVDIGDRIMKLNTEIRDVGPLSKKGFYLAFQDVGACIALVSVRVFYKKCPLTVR", "settings": "ref [37]; cited from earlier work"}, "EphA2 [3]": {"molecular_target": "T1, EphA2 (Homo sapiens, UniProt P29317)", "T1 sequence (P29317 24-976)": "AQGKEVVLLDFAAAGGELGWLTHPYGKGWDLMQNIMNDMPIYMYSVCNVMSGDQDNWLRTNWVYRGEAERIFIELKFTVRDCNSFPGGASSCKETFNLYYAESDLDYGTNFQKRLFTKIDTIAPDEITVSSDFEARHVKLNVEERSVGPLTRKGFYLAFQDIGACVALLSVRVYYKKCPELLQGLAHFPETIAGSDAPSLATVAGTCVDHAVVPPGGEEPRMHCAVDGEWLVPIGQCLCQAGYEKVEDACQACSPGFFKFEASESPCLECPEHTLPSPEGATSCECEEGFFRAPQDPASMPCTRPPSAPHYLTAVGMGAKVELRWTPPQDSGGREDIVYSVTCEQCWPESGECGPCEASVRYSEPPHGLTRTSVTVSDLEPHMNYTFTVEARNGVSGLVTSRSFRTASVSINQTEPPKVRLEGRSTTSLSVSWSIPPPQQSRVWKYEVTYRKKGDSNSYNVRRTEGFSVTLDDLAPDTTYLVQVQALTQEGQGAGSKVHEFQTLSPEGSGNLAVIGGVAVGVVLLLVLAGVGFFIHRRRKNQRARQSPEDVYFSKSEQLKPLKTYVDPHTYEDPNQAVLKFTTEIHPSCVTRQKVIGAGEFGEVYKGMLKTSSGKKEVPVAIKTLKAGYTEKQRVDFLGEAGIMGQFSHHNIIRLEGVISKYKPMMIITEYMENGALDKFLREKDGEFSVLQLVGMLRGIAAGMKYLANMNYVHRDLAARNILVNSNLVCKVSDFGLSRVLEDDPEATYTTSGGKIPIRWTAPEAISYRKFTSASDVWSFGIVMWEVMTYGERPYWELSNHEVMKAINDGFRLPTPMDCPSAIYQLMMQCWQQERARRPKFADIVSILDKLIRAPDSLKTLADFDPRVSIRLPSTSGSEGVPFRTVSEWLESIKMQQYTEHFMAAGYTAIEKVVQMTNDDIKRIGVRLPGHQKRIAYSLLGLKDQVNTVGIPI", "type": "cell-based"}, "Eph receptors": {"test_system": "Eph receptors", "settings": "ref [36]; cited from earlier work"}, "HUVE cells [4]": {"test_system": "HUVE cells", "assay": "Capillary-like tube formation of HUVECs on Matrigel", "type": "cell-based", "settings": "18 hours"}, "EphB1": {"test_system": "EphB1", "assay": "ELISA: ephrin-B2 AP binding to immobilized EphB1 Fc"}, "EphA7": {"test_system": "EphA7", "assay": "ELISA: ephrin-A5 AP binding to immobilized EphA7 Fc"}, "EphA2 [5]": {"test_system": "EphA2"}, "EphA4": {"molecular_target": "EphA4 (Mus musculus, UniProt Q03137)", "sequence (Q03137 20-986)": "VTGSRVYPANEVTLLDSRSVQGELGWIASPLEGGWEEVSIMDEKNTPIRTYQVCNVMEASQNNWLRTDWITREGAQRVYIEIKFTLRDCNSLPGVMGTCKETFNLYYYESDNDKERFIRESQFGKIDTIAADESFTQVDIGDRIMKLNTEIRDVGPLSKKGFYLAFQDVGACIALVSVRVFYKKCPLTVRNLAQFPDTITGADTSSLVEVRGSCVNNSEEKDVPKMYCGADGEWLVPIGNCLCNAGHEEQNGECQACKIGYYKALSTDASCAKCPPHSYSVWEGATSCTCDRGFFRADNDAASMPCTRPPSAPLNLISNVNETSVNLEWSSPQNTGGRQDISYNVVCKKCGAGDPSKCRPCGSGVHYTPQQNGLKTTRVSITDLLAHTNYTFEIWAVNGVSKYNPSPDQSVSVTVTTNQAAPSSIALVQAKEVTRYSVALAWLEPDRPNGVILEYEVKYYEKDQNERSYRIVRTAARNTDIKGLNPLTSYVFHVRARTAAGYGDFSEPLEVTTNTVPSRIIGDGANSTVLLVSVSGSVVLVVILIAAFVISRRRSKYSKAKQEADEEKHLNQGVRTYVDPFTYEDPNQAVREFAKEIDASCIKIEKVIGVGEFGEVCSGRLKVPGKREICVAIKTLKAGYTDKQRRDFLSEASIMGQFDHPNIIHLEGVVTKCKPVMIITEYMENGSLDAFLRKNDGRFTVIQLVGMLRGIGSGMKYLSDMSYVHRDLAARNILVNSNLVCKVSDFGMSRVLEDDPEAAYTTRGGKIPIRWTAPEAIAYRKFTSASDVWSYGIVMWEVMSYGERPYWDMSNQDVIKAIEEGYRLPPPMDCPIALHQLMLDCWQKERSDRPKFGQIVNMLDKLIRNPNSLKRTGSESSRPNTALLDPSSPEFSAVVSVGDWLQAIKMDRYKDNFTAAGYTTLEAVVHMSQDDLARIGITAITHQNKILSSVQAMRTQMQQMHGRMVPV", "assay": "Ephrin-induced EphA4 tyrosine phosphorylation in HT22 neuronal cells", "type": "cell-based", "settings": "ephrin-A5 Fc"}, "EphB3": {"test_system": "EphB3", "assay": "ELISA: ephrin-B2 AP binding to immobilized EphB3 Fc"}, "PC3 cells": {"test_system": "PC3 cells", "assay": "PC3 cell retraction assay", "type": "cell-based"}, "EphA6": {"test_system": "EphA6", "assay": "ELISA: ephrin-A5 AP binding to immobilized EphA6 Fc"}, "EphA2 [6]": {"test_system": "EphA2", "assay": "Ephrin-A1 Fc-induced EphA2 tyrosine phosphorylation in COS cells", "type": "cell-based"}, "EphA5": {"test_system": "EphA5", "assay": "ELISA: ephrin-A5 AP binding to immobilized EphA5 Fc"}, "[7]": {"assay": "Stability of compound in DMSO, followed by ELISA IC50", "type": "physicochemical", "settings": "DMSO at ≤ 10 mM, room temperature, after 4 days"}, "EphB2 [8]": {"test_system": "EphB2", "assay": "Ephrin-B2 Fc-induced EphB2 tyrosine phosphorylation in COS cells", "type": "cell-based"}, "EphA3": {"test_system": "EphA3", "assay": "ELISA: ephrin-A5 AP binding to immobilized EphA3 Fc"}, "HUVE cells [9]": {"test_system": "HUVE cells", "assay": "MTT assay, HUVE cell viability", "type": "cell-based", "settings": "200 μM"}, "EphA2 [10]": {"molecular_target": "T1, EphA2", "assay": "TNFα-induced EphA2 tyrosine phosphorylation in HUVE cells", "type": "cell-based", "settings": "20 nM TNFα, 2 hours"}, "EphB4": {"test_system": "EphB4", "assay": "ELISA: ephrin-B2 AP binding to immobilized EphB4 Fc"}, "EphB6": {"test_system": "EphB6", "assay": "ELISA: ephrin-B2 AP binding to immobilized EphB6 Fc"}, "EphB2 [11]": {"test_system": "EphB2", "assay": "ELISA: ephrin-B2 AP binding to immobilized EphB2 Fc"}},
  "note": "Like-named read-outs stand apart in the source and are kept apart here.",
  "data": [
    {"compound": "Cc1ccc(C)n1-c1ccc(C(=O)O)c(O)c1", "note": "[Compound 1, reference compound]", "values": [
      {"measurement": "Change of activity in ephrin-A5-EphA4 ELISA on storage", "setting": "EphA4 Fc; dry form exposed to air at room temperature", "value": "becomes progressively more active"},
      {"measurement": "Inhibition of ephrin-A5 AP binding to EphA4 Fc", "setting": "EphA4 Fc; newly synthesized preparation", "value": "did not show detectable inhibition"},
      {"measurement": "Inhibition of ephrin-A5 AP binding to EphA4 Fc", "setting": "EphA4 Fc; purchased preparation", "value": "activity comparable to that previously reported"},
      {"measurement": "Binding to EphA4 (resonance peak shifts of compound protons)", "setting": "[1]", "value": "some, albeit weak, ability to bind to EphA4"},
      {"measurement": "Inhibition of EphA4 AP binding to ephrin-A4 and ephrin-B2", "setting": "[2]", "value": "do not efficiently inhibit"},
      {"measurement": "Inhibition of EphA2 phosphorylation in cells stimulated with ephrin-A1 Fc", "setting": "EphA2 [3]; newly synthesized preparation, PC3 cells", "value": "did not show detectable inhibition"},
      {"measurement": "Inhibition of EphA2 phosphorylation in cells stimulated with ephrin-A1 Fc", "setting": "EphA2 [3]; purchased preparation, PC3 cells", "value": "activity comparable to that previously reported"}
    ]},
    {"compound": "Cc1ccc(C)n1-c1ccc(O)c(C(=O)O)c1", "note": "[Compound 2]", "values": [
      {"measurement": "Inhibition of EphA4 AP binding to ephrin-A4 and ephrin-B2", "setting": "[2]", "value": "do not efficiently inhibit"}
    ]},
    {"compound": "C[C@H](CCC(=O)O)[C@H]1CC[C@H]2[C@@H]3CC[C@@H]4C[C@H](O)CC[C@]4(C)[C@H]3CC[C@]12C", "note": "[lithocholic acid]", "values": [
      {"measurement": "Inhibition of Eph receptors", "setting": "Eph receptors", "value": "inhibit with similar low potency all Eph receptors examined"}
    ]},
    {"compound": "O=C(/C=C/c1ccc(-c2ccc(O)c(C(=O)O)c2)o1)/C=C/c1ccc(-c2ccc(O)c(C(=O)O)c2)o1", "note": "[Compound 76D10]", "values": [
      {"measurement": "Inhibition of capillary-like tube formation", "setting": "HUVE cells [4]", "value": "inhibits capillary-like tube formation"},
      {"measurement": "Inhibition of ephrin binding to EphB1", "setting": "EphB1", "value": "much lower to undetectable inhibitory activity"},
      {"measurement": "Inhibition of ephrin-A5 binding to EphA7", "setting": "EphA7", "value": "inhibits with substantial potency"},
      {"measurement": "Selectivity among EphA and EphB receptors examined", "setting": "EphA2 [5]", "value": "preferentially inhibits"},
      {"measurement": "Inhibition of EphA4 tyrosine phosphorylation", "setting": "EphA4", "value": "inhibits EphA4 tyrosine phosphorylation"},
      {"measurement": "Selectivity among EphA and EphB receptors examined", "setting": "EphA4 Fc", "value": "preferentially inhibits"},
      {"measurement": "Time to binding equilibrium after addition of ephrin-A5 AP with compound", "setting": "EphA4 Fc", "value": "≤ 3", "unit": "h"},
      {"measurement": "Inhibitory activity in the presence of BSA", "setting": "EphA4 Fc; 0.1 mg/ml BSA", "value": "lost"},
      {"measurement": "Inhibitory activity in the presence of collagen", "setting": "EphA4 Fc; 0.1 mg/ml collagen", "value": "not affected"},
      {"measurement": "Reversibility of binding to EphA4 in ELISA", "setting": "EphA4 Fc; 3 hour incubation, wash, 24 hours in binding buffer", "value": "does not appear to be reversible"},
      {"measurement": "Mode of inhibition (Bmax and KD of ephrin-A5 AP binding curves)", "setting": "EphA4 Fc; increasing 76D10 concentrations", "value": "consistent with competitive inhibition"},
      {"measurement": "Inhibition of ephrin binding to EphB3", "setting": "EphB3", "value": "much lower to undetectable inhibitory activity"},
      {"measurement": "Effect on cell morphology in the absence of ephrin", "setting": "PC3 cells", "value": "does not affect cell morphology"},
      {"measurement": "Reversal of the effect of ephrin-A1 on cell area", "setting": "PC3 cells; 25 μM", "value": "partially"},
      {"measurement": "Reversal of the effect of ephrin-A1 on cell area", "setting": "PC3 cells; 50 μM", "value": "partially"},
      {"measurement": "Reversal of the effect of ephrin-A1 on cell area", "setting": "PC3 cells; 100 μM", "value": "reverted completely"},
      {"measurement": "Inhibition of ephrin-A1 Fc-induced cell retraction", "setting": "PC3 cells; concentrations between 25 and 100 μM", "value": "significantly counteracts these effects"},
      {"measurement": "Inhibition of ephrin-A5 binding to EphA6", "setting": "EphA6", "value": "inhibits with substantial potency"},
      {"measurement": "Inhibition of EphA2 tyrosine phosphorylation", "setting": "EphA2 [6]", "value": "inhibits tyrosine phosphorylation"},
      {"measurement": "Inhibition of ephrin-A5 binding to EphA5", "setting": "EphA5", "value": "inhibits with substantial potency"},
      {"measurement": "Increase in IC50 values on storage in DMSO", "setting": "[7]", "value": 10, "unit": "fold"},
      {"measurement": "Inhibition of EphB2 tyrosine phosphorylation", "setting": "EphB2 [8]", "value": "not EphB2 tyrosine phosphorylation"},
      {"measurement": "Inhibition of ephrin binding to EphA3", "setting": "EphA3", "value": "much lower to undetectable inhibitory activity"},
      {"measurement": "HUVE cell viability (MTT)", "setting": "HUVE cells [9]; three days", "value": "minimally affected"},
      {"measurement": "HUVE cell viability (MTT)", "setting": "HUVE cells [9]; up to one day", "value": "not affected"},
      {"measurement": "Effect of BSA in culture medium on compound activity", "setting": "EphA2 [3]; 0.1 mg/mL BSA, COS and PC3 cells", "value": "inhibited the activity"},
      {"measurement": "Inhibition of EphA2 tyrosine phosphorylation", "setting": "EphA2 [3]; PC3 cells, ephrin-A1 Fc", "value": "inhibits tyrosine phosphorylation"},
      {"measurement": "Inhibition of EphA2 tyrosine phosphorylation in response to TNFα", "setting": "EphA2 [10]", "value": "inhibits EphA2 tyrosine phosphorylation"},
      {"measurement": "Inhibition of ephrin-B2 binding to EphB4", "setting": "EphB4", "value": "inhibits with substantial potency"},
      {"measurement": "Inhibition of ephrin-B2 binding to EphB6", "setting": "EphB6", "value": "inhibits with substantial potency"},
      {"measurement": "Inhibition of ephrin binding to EphB2", "setting": "EphB2 [11]", "value": "much lower to undetectable inhibitory activity"}
    ]},
    {"compound": "O=Cc1ccc(-c2ccc(O)c(C(=O)O)c2)o1", "note": "[Compound 76B8, 5-(5-formylfuran-2-yl)-2-hydroxybenzoic acid]", "values": [
      {"measurement": "Inhibitory activity on ephrin-A5 AP binding to EphA4 Fc", "setting": "EphA4 Fc", "value": "did not show detectable inhibitory activity"}
    ]},
    {"compound": "COC(=O)/C=C/c1ccc(-c2ccc(O)c(C(=O)OC)c2)o1", "note": "[Compound 76A5, (E)-methyl 2-hydroxy-5-(5-(3-methoxy-3-oxoprop-1-en-1-yl)furan-2-yl)benzoate]", "values": [
      {"measurement": "Inhibitory activity on ephrin-A5 AP binding to EphA4 Fc", "setting": "EphA4 Fc", "value": "did not show detectable inhibitory activity"}
    ]}
  ]
}
